# Entries after “also recorded” stand apart in the source; their conditions may differ. Where two headings read alike, the source gives them in different places.
# Tests used:
# [1] = literature, in words, cited from earlier work
# [2] = literature, in words, cited from earlier work; remark: listed apart in the source
# [3] = test system: PANC-1 pancreatic cancer cells; experiment: MTT assay for cell viability, PANC-1 pancreatic cancer cells; type: cell-based; details: Homo sapiens; PANC-1, MTT, 48 hours
# Experimental: (§1) The A375 human malignant melanoma cells, PANC-1 pancreatic cancer cells and HEK293 human embryonic kidney cells were cultured in media containing 89% DMEM, 10% FBS and 1% penicillin-streptomycin. Once confluent, the cells were washed thrice with 1×PBS and detached from T75 flasks by incubating the cells with 2 mL trypsin-EDTA for 5-10 minutes at 37° C. 2 mL DMEM was added to the cells to stop the reaction of trypsin-EDTA. […] The intensity of this colour is proportional to the state of metabolic activity in the cells and therefore the extent of cell viability. MTT is therefore used to measure the extent to which the drugs are toxic. PANC-1 pancreatic cancer, A375 malignant melanoma and HEK293 human embryonic kidney cell lines were cultured to confluence in CytoOne T75 vented cell culture flasks (USA Scientific). The cells were counted using a haemocytometer and passaged/plated into CytoOne 96 well plates (USA Scientific). […] Absorbance readings were measured at 570 nm using a 96 well plate reader. The percentage of viable cells in treated and untreated cultures was calculated and compared. […] The cell viability data was expressed as the mean±standard deviation (SD) from three independent experiments. The IC50 values were calculated using the non-linear regression test which briefly involves conversion of the ezetimibe concentrations to log values. […]
# [4] = cited from earlier work
# [5] = test system: HEK293 human embryonic kidney cells; experiment: MTT assay for cell viability, HEK293 normal embryonic kidney cells; type: cell-based; details: 0.1-200 μM, 48 hours
# Experimental: as §1
# [6] = test system: A375 human malignant melanoma cells; experiment: MTT assay for cell viability, A375 malignant melanoma cells; type: cell-based; details: for IC50: A375, MTT, 48 hours, nonlinear regression, read-out: IC50, growth inhibition of melanoma cell line
# Experimental: The A375 human malignant melanoma cells, PANC-1 pancreatic cancer cells and HEK293 human embryonic kidney cells were cultured in media containing 89% DMEM, 10% FBS and 1% penicillin-streptomycin. Once confluent, the cells were washed thrice with 1×PBS and detached from T75 flasks by incubating the cells with 2 mL trypsin-EDTA for 5-10 minutes at 37° C. 2 mL DMEM was added to the cells to stop the reaction of trypsin-EDTA. […] The intensity of this colour is proportional to the state of metabolic activity in the cells and therefore the extent of cell viability. MTT is therefore used to measure the extent to which the drugs are toxic. PANC-1 pancreatic cancer, A375 malignant melanoma and HEK293 human embryonic kidney cell lines were cultured to confluence in CytoOne T75 vented cell culture flasks (USA Scientific). The cells were counted using a haemocytometer and passaged/plated into CytoOne 96 well plates (USA Scientific). Approximately 5 000 cells per 200 μl were plated. The plates were incubated overnight to allow for attachment. The medium was removed after overnight incubation. […] After incubation for 48 hours, 20 μL of MTT reagent was added and incubated for 4 hours. Approximately 200 μL of the solubilisation reagent was added to each well and incubated overnight. The MTT assay was performed using the cell proliferation kit I (MTT) (Roche, Switzerland) by following the instructions in the manual. Absorbance readings were measured at 570 nm using a 96 well plate reader. The percentage of viable cells in treated and untreated cultures was calculated and compared. All statistical analyses were performed using Prism GraphPad Software (San Diego, Calif. 92108, USA). The cell viability data was expressed as the mean±standard deviation (SD) from three independent experiments. The IC50 values were calculated using the non-linear regression test which briefly involves conversion of the ezetimibe concentrations to log values. The log values were matched with their corresponding cell viability percentages. The one sample T-test and Wilcoxon Signed Rank Test were used to determine the statistical difference between the cell viability percentage in treated cells.
# cholesterol absorption = details: reported experiments with the initial drug lead; cited from earlier work
# Mdm2 = Mdm2 (Homo sapiens, UniProt Q00987); details: Warner et al. 2012; cited from earlier work
# Mdm2, sequence (Q00987 whole entry): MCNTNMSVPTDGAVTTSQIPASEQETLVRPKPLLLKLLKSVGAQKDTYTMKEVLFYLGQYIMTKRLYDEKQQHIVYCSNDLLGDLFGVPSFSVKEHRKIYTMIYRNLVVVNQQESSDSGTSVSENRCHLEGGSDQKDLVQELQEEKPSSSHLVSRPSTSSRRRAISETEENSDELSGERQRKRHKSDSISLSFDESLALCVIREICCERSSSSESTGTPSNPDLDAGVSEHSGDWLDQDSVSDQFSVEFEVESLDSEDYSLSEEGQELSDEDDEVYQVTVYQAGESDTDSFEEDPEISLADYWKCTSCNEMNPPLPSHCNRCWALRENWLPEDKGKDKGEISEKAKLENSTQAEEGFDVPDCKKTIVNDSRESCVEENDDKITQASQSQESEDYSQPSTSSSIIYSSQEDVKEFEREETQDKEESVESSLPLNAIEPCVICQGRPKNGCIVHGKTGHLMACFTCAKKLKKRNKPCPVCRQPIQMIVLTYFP
# [7] = ezetimibe and/or the glucuronide metabolite
smiles,measurement,setting,value
COc1cc(/C=C/C(=O)CC(=O)/C=C/c2ccc(O)c(OC)c2)ccc1O [Curcumin],Bioavailability,[1],Poor
same,Bioavailability,[1]; listed as curcumin,poor bioavailability; also recorded: low bioavailability
O=C1[C@H](CC[C@H](O)c2ccc(F)cc2)[C@@H](c2ccc(O)cc2)N1c1ccc(F)cc1 [Ezetimibe],Aqueous Solubility,[2],Poor
same,Aqueous Solubility,[2]; listed as ezetimibe,highly insoluble
same,Bioavailability,[1],poor bioavailability; also recorded: Almost negligible
same,Bioavailability,[1]; listed as ezetimibe,low bioavailability
same,IC50,[3],71.6 µM
same,Fraction metabolised in the intestine to the glucuronide metabolite,"[4]; by UGT 1A1, 1A3 and 2B15",Up to 80%
same,Excreted in the faeces,[4]; [7],90%
same,Excreted in urine,[4]; [7],10%
same,Toxicity to normal human embryonic kidney cell line,[5],non-toxic; also recorded: does not exhibit toxicity
same,IC50,[6],30.7 µM
same,IC50,"[6]; Homo sapiens, A-375, 48 h",30.7 µM
same,inhibition at 200 µM,"[6]; Homo sapiens, A-375, A375, highest concentration, 200 μM, read-out: Inhibition of the melanoma cell line",> 80%
same,inhibition at 1 µM,"[6]; Homo sapiens, A-375, A375, lowest concentration tested, 1 μM, read-out: Inhibition of the melanoma cell line",~20%
same,Concentrations toxic to cancer cells,"[6]; cancer cells (A375 and PANC-1), MTT",20 to 80 µM
COc1ccc([C@@H]2[C@@H](CCCc3ccccc3)C(=O)N2c2ccc(OC)cc2)cc1 [SCH48461],Inhibition of cholesterol absorption,cholesterol absorption,70%
"COc1ccc(C2=NC(c3ccc(Cl)cc3)C(c3ccc(Cl)cc3)N2C(=O)N2CCNC(=O)C2)c(OC(C)C)c1 (stereo not shown) [nutlin-3a, 4-(4,5-bis(4-chlorophenyl)-2-(2-isopropoxy-4-methoxyphenyl)-4,5-dihydro-1H-imidazole-1-carbonyl) piperazin-2-one]",Bioavailability,[1],poor bioavailability
same,"Estimated free energy of binding, kcal/mol (Patch Dock)",Mdm2,−7.7+/−0.6 kcal/mol (Warner et al. 2012)

# — patent US20220387383A1 (University of South Africa, priority 2019, published 2022)
